Laboratory results as given in ChEMBL document CHEMBL6134814, “Asiatic acid and its derivatives: Pharmacological insights and applications” (Eur J Med Chem, 2025).

Columns and labels:
[1] = test system: A-375; assay: Cytotoxicity against human A-375 cells assessed as reduction in cell growth incubated for 72 hrs by SRB assay; format: functional, cell-based; settings: A-375, 72 h
[2] = test system: HT-29; assay: Cytotoxicity against human HT-29 cells assessed as reduction in cell growth incubated for 72 hrs by SRB assay; format: functional, cell-based; settings: HT-29, 72 h
[3] = test system: MCF7; assay: Cytotoxicity against human MCF7 cells assessed as reduction in cell growth incubated for 72 hrs by SRB assay; format: functional, cell-based; settings: MCF7, 72 h
[4] = test system: A2780; assay: Cytotoxicity against human A2780 cells assessed as reduction in cell growth incubated for 72 hrs by SRB assay; format: functional, cell-based; settings: A2780, 72 h
[5] = test system: A549; assay: Antiproliferative activity against human A549 cells assessed as reduction in cell viability incubated for 72 hrs by CCK-8 assay; format: functional, cell-based; settings: A549, 72 h
[6] = Antiproliferative activity against human PC9 Gefitinib-resistant (GR) cell assessed as reduction in cell viability incubated for 72 hrs by CCK-8 assay; format: functional, cell-based
[7] = test system: KB; assay: Cytotoxicity against human KB cells assessed as reduction in cell viability incubated for 48 hrs by MTT assay; format: functional, cell-based
[8] = test system: HepG2; assay: Cytotoxicity against human HepG2 cells assessed as reduction in cell viability incubated for 48 hrs by MTT assay; format: functional, cell-based; settings: HepG2, 48 h
[9] = test system: SK-LU-1; assay: Cytotoxicity against human SK-LU-1 cells assessed as reduction in cell viability incubated for 48 hrs by MTT assay; format: functional, cell-based; settings: SK-LU-1, 48 h
[10] = test system: K562; assay: Cytotoxicity against human K562 cells assessed as reduction in cell viability incubated for 24 hrs by MTT assay; format: functional, cell-based; settings: K562, 24 h
[11] = test system: HepG2; assay: Antiproliferative activity against human HepG2 cells assessed as reduction in cell viability incubated for 48 hrs by MTT assay; format: functional, cell-based; settings: HepG2, 48 h
[12] = test system: SGC-7901; assay: Antiproliferative activity against human SGC-7901 cells assessed as reduction in cell viability incubated for 48 hrs by MTT assay; format: functional, cell-based; settings: SGC-7901, 48 h
[13] = target: Carbonic anhydrase 1 (Homo sapiens, UniProt P00915); assay: Binding affinity to human carbonic anhydrase I assessed as inhibition constant
[14] = target: Carbonic anhydrase 2 (Homo sapiens, UniProt P00918); assay: Binding affinity to human carbonic anhydrase 2 assessed as inhibition constant
[15] = target: Carbonic anhydrase 5A, mitochondrial (Homo sapiens, UniProt P35218); assay: Binding affinity to human carbonic anhydrase 5A assessed as inhibition constant
[16] = target: Carbonic anhydrase 9 (Homo sapiens, UniProt Q16790); assay: Binding affinity to human carbonic anhydrase 9 assessed as inhibition constant
[17] = test system: SGC-7901; assay: Antiproliferative activity against human SGC-7901 cells assessed as reduction in cell viability incubated for 72 hrs by MTT assay; format: functional, cell-based; settings: SGC-7901, 72 h
[18] = test system: HepG2; assay: Antiproliferative activity against human HepG2 cells assessed as reduction in cell viability incubated for 72 hrs by MTT assay; format: functional, cell-based; settings: HepG2, 72 h
[19] = test system: Jurkat; assay: Antiproliferative activity against human Jurkat cells assessed as reduction in cell growth incubated for 72 hrs by XTT assay; format: functional, cell-based
[20] = test system: PC-3; assay: Antiproliferative activity against human PC-3 cells assessed as reduction in cell growth incubated for 72 hrs by MTT assay; format: functional, cell-based; settings: PC-3, 72 h
[21] = test system: MIA PaCa-2; assay: Antiproliferative activity against human MIA PaCa-2 cells assessed as reduction in cell growth incubated for 72 hrs by MTT assay; format: functional, cell-based; settings: MIA PaCa-2, 72 h
[22] = test system: A-375; assay: Antiproliferative activity against human A-375 cells assessed as reduction in cell growth incubated for 72 hrs by MTT assay; format: functional, cell-based; settings: A-375, 72 h
[23] = test system: HCT-116; assay: Cytotoxicity against human HCT-116 cells assessed as reduction in cell viability incubated fro 48 hrs by MTT assay; format: functional, cell-based; settings: HCT-116, 48 h
[24] = Cytotoxicity against human SPCA1 cells assessed as reduction in cell viability incubated fro 48 hrs by MTT assay; format: functional, cell-based; settings: SPCA1, 48 h
[25] = test system: SK-OV-3; assay: Cytotoxicity against human SK-OV-3 cells assessed as reduction in cell viability incubated fro 48 hrs by MTT assay; format: functional, cell-based; settings: SK-OV-3, 48 h
[26] = test system: B16-F10; assay: Anticancer activity against mouse B16-F10 cells assessed as reduction in cell growth incubated for 72 hrs by CCK-8 assay; format: functional, cell-based; settings: B16-F10, 72 h
[27] = test system: HeLa; assay: Antiproliferative activity against human HeLa cells; format: functional, cell-based
[28] = test system: HepG2; assay: Antiproliferative activity against human HepG2 cells; format: functional, cell-based
[29] = test system: BGC-823; assay: Antiproliferative activity against human BGC-823 cells; format: functional, cell-based
[30] = test system: SK-OV-3; assay: Anticancer activity against human SK-OV-3 cells assessed as reduction in cell growth at 40 microg/ml incubated for 72 hrs by MTT assay relative to control; format: functional; design: scale not given: the % may be the effect or the level left; settings: dose 40 µg/ml
[31] = test system: OVCAR-3; assay: Anticancer activity against human OVCAR-3 cells assessed as reduction in cell growth at 40 microg/ml incubated for 72 hrs by MTT assay relative to control; format: functional; design: scale not given: the % may be the effect or the level left; settings: dose 40 µg/ml
[32] = test system: Hepatocyte; assay: Hepatoprotective activity against glucosamine-induced liver injury in rat hepatocytes assessed as at 50 uM relative to control; format: functional
[33] = test system: Hepatocyte; assay: Hepatoprotective activity against CCl4-induced liver injury in male Wistar rat hepatocytes assessed as at 50 uM relative to control; format: functional
[34] = Inhibition of alpha-glucosidase (unknown origin); design: species or system Homo sapiens
[35] = test system: HCT-116; assay: Cytotoxicity against human HCT-116 cells assessed as reduction in cell growth incubated for 72 hrs by MTT assay; format: functional, cell-based; settings: HCT-116, 72 h
[36] = test system: A2780; assay: Cytotoxicity against human A2780 cells assessed as reduction in cell growth incubated for 72 hrs by MTT assay; format: functional, cell-based; settings: A2780, 72 h
[37] = test system: HepG2; assay: Cytotoxicity against human HepG2 cells assessed as reduction in cell growth incubated for 72 hrs by MTT assay; format: functional, cell-based; settings: HepG2, 72 h
[38] = test system: HL-60; assay: Cytotoxicity against human HL-60 cells assessed as reduction in cell growth incubated for 72 hrs by MTT assay; format: functional, cell-based; settings: HL-60, 72 h
[39] = test system: MCF7; assay: Cytotoxicity against human MCF7 cells assessed as reduction in cell growth incubated for 72 hrs by MTT assay; format: functional, cell-based; settings: MCF7, 72 h
[40] = test system: HT-29; assay: Antiproliferative activity against human HT-29 cells assessed as reduction in cell viability incubated for 72 hrs by MTT assay; format: functional, cell-based; settings: HT-29, 72 h

Chain of Carbonic anhydrase 5A, mitochondrial (P35218 whole entry): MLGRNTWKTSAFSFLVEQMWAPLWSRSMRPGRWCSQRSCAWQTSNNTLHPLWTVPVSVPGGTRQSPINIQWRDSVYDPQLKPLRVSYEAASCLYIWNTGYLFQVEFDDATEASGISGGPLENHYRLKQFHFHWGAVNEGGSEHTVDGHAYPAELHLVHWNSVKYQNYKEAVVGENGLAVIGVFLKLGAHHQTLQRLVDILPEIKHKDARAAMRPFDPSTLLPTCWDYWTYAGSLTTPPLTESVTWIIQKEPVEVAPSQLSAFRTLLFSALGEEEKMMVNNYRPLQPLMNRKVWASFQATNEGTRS
Chain of Carbonic anhydrase 1 (P00915 whole entry): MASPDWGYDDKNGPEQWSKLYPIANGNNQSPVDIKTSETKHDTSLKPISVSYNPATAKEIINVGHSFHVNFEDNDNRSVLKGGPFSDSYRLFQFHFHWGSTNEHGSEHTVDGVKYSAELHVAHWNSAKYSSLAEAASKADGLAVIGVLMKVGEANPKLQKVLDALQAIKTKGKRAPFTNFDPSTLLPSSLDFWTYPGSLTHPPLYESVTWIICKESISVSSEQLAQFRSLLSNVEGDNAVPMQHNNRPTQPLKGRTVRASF

SMILES: CC(=O)O[C@@H]1C[C@@]2(C)[C@@H](CC[C@]3(C)[C@@H]2CC=C2[C@@H]4[C@@H](C)[C@H](C)CC[C@]4(C(=O)N4CCCN(C(=O)c5ccccc5-c5c6ccc(=[N+](CCO)CCO)cc-6oc6cc(N(CCO)CCO)ccc56)CCC4)CC[C@]23C)[C@](C)(OC(C)=O)[C@H]1OC(C)=O
- IC50 [1]: 0.0074 µM
- IC50 [2]: 0.012 µM
- IC50 [3]: 0.017 µM
- IC50 [4]: 0.0019 µM

SMILES: C[C@H]1[C@H](C)CC[C@]2(C(=O)O)CC[C@]3(C)C(=CC[C@@H]4[C@@]5(C)C[C@@H](OC(=O)CCC(=O)O)[C@@H]6OC(C)(C)OC[C@@]6(C)[C@@H]5CC[C@]43C)[C@H]12
- IC50 [5]: 26 µM
- IC50 [6]: 25.6 µM

SMILES: CCOC(=O)CNC(=O)[C@]12CC[C@@H](C)[C@H](C)[C@H]1C1=CC[C@@H]3[C@@]4(C)C[C@@H](OC(C)=O)[C@H](OC(C)=O)[C@@](C)(COC(C)=O)[C@@H]4CC[C@@]3(C)[C@]1(C)CC2
- IC50 [7]: 1.39 µM
- IC50 [8]: 1.99 µM
- IC50 [9]: 1.39 µM

SMILES: C[C@H]1[C@H](C)CC[C@]2(C(=O)OCc3ccccc3)CC[C@]3(C)C(=CC[C@@H]4[C@@]5(C)C[C@@H](O)[C@H](O)[C@@](C)(CO)[C@@H]5CC[C@]43C)[C@H]12
- IC50 [10]: 4.1 µM

SMILES: COc1cccc(NC(=O)[C@]23CC[C@@H](C)[C@H](C)[C@H]2C2=CC[C@@H]4[C@@]5(C)CC6=NCCN=C6[C@@](C)(C=O)[C@@H]5CC[C@@]4(C)[C@]2(C)CC3)c1
- IC50 [11]: 4.18 µM
- IC50 [12]: 3.96 µM

SMILES: C[C@H]1[C@H](C)CC[C@]2(C(=O)Nc3ccccc3)CC[C@]3(C)C(=CC[C@@H]4[C@@]5(C)C[C@@H](OS(N)(=O)=O)[C@H](OS(N)(=O)=O)[C@@](C)(COS(N)(=O)=O)[C@@H]5CC[C@]43C)[C@H]12
- Ki [13]: 5.23 µM
- Ki [14]: 0.298 µM
- Ki [15]: 0.0362 µM
- Ki [16]: 0.0258 µM

SMILES: CC(=O)OC[C@@]1(C)[C@@H]2CC[C@]3(C)[C@H](C(=O)C=C4[C@@H]5[C@@H](C)[C@H](C)CC[C@]5(C(=O)Nc5ccccc5CO)CC[C@]43C)[C@@]2(C)C[C@@H](OC(C)=O)[C@@H]1OC(C)=O
- IC50 [17]: 3.2 µM
- IC50 [18]: 2.2 µM

SMILES: COC(=O)[C@]12CC[C@@H](C)[C@H](C)[C@H]1C1=CC(=O)[C@@H]3[C@@]4(C)C(C=O)=C[C@@](C)(COS(C)(=O)=O)[C@@H]4CC[C@@]3(C)[C@]1(C)CC2
- IC50 [19]: 0.11 µM
- IC50 [20]: 0.42 µM
- IC50 [21]: 0.46 µM
- IC50 [22]: 0.25 µM

SMILES: CCOP(=O)(OCC)C(NC(=O)[C@]12CC[C@@H](C)[C@H](C)[C@H]1C1=CC[C@@H]3[C@@]4(C)C[C@@H](OC(C)=O)[C@H](OC(C)=O)[C@@](C)(COC(C)=O)[C@@H]4CC[C@@]3(C)[C@]1(C)CC2)c1ccccc1Cl (stereo not given in full)
- IC50 [23]: 26.1 µM
- IC50 [24]: 15 µM
- IC50 [25]: 27.5 µM

SMILES: COC(=O)C1CCCN1C(=O)[C@]12CC[C@@H](C)[C@H](C)[C@H]1C1=CC[C@@H]3[C@@]4(C)C[C@@H](OC(C)=O)[C@H](OC(C)=O)[C@@](C)(COC(C)=O)[C@@H]4CC[C@@]3(C)[C@]1(C)CC2 (stereo not given in full)
- IC50 [26]: 4.2 µM

SMILES: CC(=O)OC[C@@]1(C)[C@@H]2CC[C@]3(C)[C@H](C(=O)C=C4[C@@H]5[C@@H](C)[C@H](C)CC[C@]5(C(=O)OCCO)CC[C@]43C)[C@@]2(C)C[C@@H](OC(C)=O)[C@@H]1OC(C)=O
- IC50 [27]: 4.78 µM
- IC50 [28]: 6.84 µM
- IC50 [29]: 8.75 µM

SMILES: C[C@H]1[C@H](C)CC[C@]2(C(=O)O)CC[C@]3(C)C(=CC[C@@H]4[C@@]5(C)C[C@@H](O)[C@H](O)[C@@](C)(CO)[C@@H]5CC[C@]43C)[C@H]12 [ASIATIC ACID]
- Activity [30]: 50%
- Activity [31]: 50%

SMILES: COC(=O)[C@]12CC[C@@H](C)[C@H](C)[C@H]1C1=CC[C@@H]3[C@@]4(C)C[C@@H](OC(C)=O)C(=O)[C@@](C)(CC(=O)O)[C@@H]4CC[C@@]3(C)[C@]1(C)CC2
- Activity [32]: 66.4%

SMILES: C[C@H]1[C@H](C)CC[C@]2(C(=O)O)CC[C@]3(C)C(=CC[C@@H]4[C@@]5(C)CC[C@H](O)[C@@](C)(CO)[C@@H]5CC[C@]43C)[C@H]12
- Activity [33]: 58.3%

SMILES: CC(N)C(=O)N1CCN(C(=O)[C@]23CC[C@@H](C)[C@H](C)[C@H]2C2=CC[C@@H]4[C@@]5(C)C[C@@H](O)[C@H](O)[C@@](C)(CO)[C@@H]5CC[C@@]4(C)[C@]2(C)CC3)CC1 (stereo not given in full)
- IC50 [34]: 1190 µM

SMILES: COC(=O)[C@@]1(C)[C@@H]2CC[C@]3(C)[C@H](CC=C4[C@@H]5[C@@H](C)[C@H](C)CC[C@]5(C(=O)Nc5ccccc5)CC[C@]43C)[C@@]2(C)C[C@@H](OC)[C@@H]1OC(C)=O
- IC50 [35]: 1.08 µM
- IC50 [36]: 1.28 µM
- IC50 [37]: 1.43 µM
- IC50 [38]: 0.48 µM
- IC50 [39]: 3.99 µM

SMILES: CC(=O)OC[C@@]1(C)[C@@H]2CC[C@]3(C)[C@H](CC=C4[C@@H]5[C@@H](C)[C@H](C)CC[C@]5(C(=O)NO)CC[C@]43C)[C@@]2(C)C[C@@H](OC(C)=O)[C@@H]1OC(C)=O
- IC50 [40]: 4.12 µM
